Key:
Type in all cases: cell-based
[1] = system: MV4; 11 WT, MV4; 11 CRBN KO, and MOLM13 cells; assay: Cell growth ATPlite assay; conditions: Homo sapiens; ATP level by ATPlite, 48 h treatment, normalized to DMSO; cell line not given
Method: Human MV4; 11 WT, MV4; 11 CRBN KO, and MOLM13 cells were seeded in 384-well plate and treated with indicated compounds for 48 h. ATP level was measured by ATPlite (PerkinElmer) according to manufactures instructions. Experimental groups were measured in quadruplicate and ATP level was normalized to DMSO. IC50 was analyzed in GraphPad Prism 7.

[2] = molecular target: T1, SMARCA2 (Homo sapiens, UniProt P51531); assay: Immunoblot of SMARCA2 in A549 cells; design: endogenous in cells; host or cells: A549; conditions: 1 μM
Method: (§1) Human A549 were seeded in 6-well plate and treated with Ex. 4 or Ex. 2 for 16, 24 and 40 h. Human MOLM13 were seeded in 6-well plate and treated with Ex. 4 for 6, 10, 16, 24 h. After treatment cells were harvested and lysed in RIPA buffer (Thermo Scientific) with Halt Protease and Phosphatase Inhibitor Cocktail (Thermo Scientific). Protein was extracted and quantified by BCA Protein Assay Kit (Pierce). Protein lysate was separated by NuPAGE 3-8% Tris-Acetate protein gels (Invitrogen) and detected by SMARCA2, PARP and β-ACTIN antibodies (Cell Signaling Technology).

[3] = molecular target: T1, SMARCA2; assay: Immunoblot of SMARCA2 in MOLM13 cells; design: endogenous in cells
Method: as §1

T1 sequence (P51531 whole entry): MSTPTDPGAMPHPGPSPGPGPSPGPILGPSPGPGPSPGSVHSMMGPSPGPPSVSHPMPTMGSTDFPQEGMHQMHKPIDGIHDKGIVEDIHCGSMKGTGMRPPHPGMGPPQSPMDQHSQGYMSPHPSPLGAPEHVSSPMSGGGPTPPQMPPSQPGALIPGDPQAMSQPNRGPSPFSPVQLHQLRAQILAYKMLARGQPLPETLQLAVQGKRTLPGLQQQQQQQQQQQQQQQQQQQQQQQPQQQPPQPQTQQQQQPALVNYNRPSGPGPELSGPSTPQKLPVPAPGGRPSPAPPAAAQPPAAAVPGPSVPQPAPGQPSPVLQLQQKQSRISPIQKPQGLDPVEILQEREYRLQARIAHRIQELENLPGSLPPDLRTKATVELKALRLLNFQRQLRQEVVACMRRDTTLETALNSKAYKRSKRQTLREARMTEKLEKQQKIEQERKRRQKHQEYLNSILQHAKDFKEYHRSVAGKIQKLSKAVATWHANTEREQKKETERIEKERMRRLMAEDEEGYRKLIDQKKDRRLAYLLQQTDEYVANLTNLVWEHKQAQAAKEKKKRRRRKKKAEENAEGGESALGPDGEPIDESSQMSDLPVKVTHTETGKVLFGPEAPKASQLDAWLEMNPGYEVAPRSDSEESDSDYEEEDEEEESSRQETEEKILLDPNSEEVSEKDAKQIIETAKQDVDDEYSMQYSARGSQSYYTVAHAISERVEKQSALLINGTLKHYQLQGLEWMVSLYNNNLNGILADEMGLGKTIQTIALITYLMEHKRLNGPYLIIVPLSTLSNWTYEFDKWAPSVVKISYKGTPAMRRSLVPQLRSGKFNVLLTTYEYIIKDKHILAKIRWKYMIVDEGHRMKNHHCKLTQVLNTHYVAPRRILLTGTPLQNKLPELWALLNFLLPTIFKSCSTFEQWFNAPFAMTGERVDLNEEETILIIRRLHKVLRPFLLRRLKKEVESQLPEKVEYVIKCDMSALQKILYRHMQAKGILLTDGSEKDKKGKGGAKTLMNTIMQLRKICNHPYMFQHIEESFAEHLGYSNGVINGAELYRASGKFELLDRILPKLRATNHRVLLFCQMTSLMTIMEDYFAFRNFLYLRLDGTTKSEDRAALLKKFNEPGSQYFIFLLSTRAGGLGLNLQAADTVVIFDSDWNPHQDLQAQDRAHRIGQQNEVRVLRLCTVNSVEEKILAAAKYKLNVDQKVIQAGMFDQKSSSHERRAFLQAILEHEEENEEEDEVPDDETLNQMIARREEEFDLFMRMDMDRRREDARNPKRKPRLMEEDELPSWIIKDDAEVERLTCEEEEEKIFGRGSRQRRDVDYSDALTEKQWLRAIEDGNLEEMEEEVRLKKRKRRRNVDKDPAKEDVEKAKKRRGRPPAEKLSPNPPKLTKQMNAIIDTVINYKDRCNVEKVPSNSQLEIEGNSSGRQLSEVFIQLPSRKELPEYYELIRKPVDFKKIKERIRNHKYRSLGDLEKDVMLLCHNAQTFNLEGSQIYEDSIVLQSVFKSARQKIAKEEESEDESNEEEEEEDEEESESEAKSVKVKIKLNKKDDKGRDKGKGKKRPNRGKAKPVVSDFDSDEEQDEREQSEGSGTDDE

time after which cells started to exhibit protein degradation (Western Blot) [2]	time after which cells started to exhibit protein degradation (Western Blot) [3]	SMILES	IC50 [1]
40 h		O=C1CCC(N2C(=O)c3cccc(NCCCCCCCCNC(=O)c4cccc(C#Cc5cc(NC(=O)Nc6ccnc(Cl)c6)ccn5)c4)c3C2=O)C(=O)N1 (stereo not shown) [Example 2]	100 to 1000 nM
		O=C1CCC(N2C(=O)c3cccc(NCCOCCOCCNC(=O)c4cccc(C#Cc5cc(NC(=O)Nc6ccnc(Cl)c6)ccn5)c4)c3C2=O)C(=O)N1 (stereo not shown) [Example 3]	100 to 1000 nM
40 h	16 h	O=C1CCC(N2C(=O)c3cccc(NCCCCNC(=O)c4cccc(C#Cc5cc(NC(=O)Nc6ccnc(Cl)c6)ccn5)c4)c3C2=O)C(=O)N1 (stereo not shown) [Example 4]	≤ 100 nM
		O=C1CCC(N2C(=O)c3ccc(NCCCCNC(=O)c4cccc(C#Cc5cc(NC(=O)Nc6ccnc(Cl)c6)ccn5)c4)cc3C2=O)C(=O)N1 (stereo not shown) [Example 7]	≤ 100 nM
		O=C1CCC(N2C(=O)c3ccc(NCCOCCNC(=O)c4cccc(C#Cc5cc(NC(=O)Nc6ccnc(Cl)c6)ccn5)c4)cc3C2=O)C(=O)N1 (stereo not shown) [Example 8]	≤ 100 nM
		Cc1ncsc1-c1ccc(CNC(=O)[C@@H]2C[C@@H](O)CN2C(=O)[C@@H](NC(=O)CCCCCNC(=O)c2cccc(C#Cc3cc(NC(=O)Nc4ccnc(Cl)c4)ccn3)c2)C(C)(C)C)cc1 [Example 9]	> 100000 nM
		Cc1ncsc1-c1ccc(CNC(=O)[C@@H]2C[C@@H](O)CN2C(=O)[C@@H](NC(=O)COCCOCCOCCNC(=O)c2cccc(C#Cc3cc(NC(=O)Nc4ccnc(Cl)c4)ccn3)c2)C(C)(C)C)cc1 [Example 10]	1000 to 10000 nM
		O=C1CCC(N2C(=O)c3cccc(NCCNC(=O)c4cccc(C#Cc5cc(NC(=O)Nc6ccnc(Cl)c6)ccn5)c4)c3C2=O)C(=O)N1 (stereo not shown) [Example 11]	> 100000 nM
		O=C1CCC(N2C(=O)c3cccc(NCCCCCCNC(=O)c4cccc(C#Cc5cc(NC(=O)Nc6ccnc(Cl)c6)ccn5)c4)c3C2=O)C(=O)N1 (stereo not shown) [Example 12]	≤ 100 nM
		O=C1CCC(N2C(=O)c3cccc(NCCCCCCCCCCCC(=O)OCc4cnc(Cl)cc4NC(=O)Nc4cc(C(F)F)ns4)c3C2=O)C(=O)N1 (stereo not shown) [Example 14]	1000 to 10000 nM

— US12599671B2, “Compounds, compositions, and methods for protein degradation” (DANA-FARBER CANCER INSTITUTE, INC., priority 2020, dated 2026)
